Structures can show the parent of a compound that is named as a salt. Where two headings read alike, the source gives them in different places.
Legend:
Plasmodium falciparum = assay: Antimalarial activity in vitro towards Plasmodium falciparum ([3H]hypoxanthine incorporation, infected human erythrocytes); assay type: cell-based; settings: Erythrocyte, approximately 48 hours; for IC50 upper bound (active at tested concentration): Table I; for IC50: Table II
Experimental: Evaluation of the antimalarial activity in vitro is carried out according to the method of DESJARDINS, CANFIELD, HATNES and CHULAY (Antimicrob. Agents Chemother., 1979, 16, 710-718). A compound according to the invention is brought into contact for approximately 48 hours with human erythrocytes infected with Plasmodium falciparum. When a radioactive nucleic acid precursor, hypoxanthine, is added to the preparation, only erythrocytes infected with Plasmodium and not affected by the said compound incorporate this precursor. […] The results are presented in Table I below, in the form of an IC50 (or ED50) (concentration of compound capable of inhibiting in vitro the growth of the parasites by 50%).
The derivatives according to the above examples are tested at three concentrations, 100, 33 and 10 nanomolar.

[1] = test system: Plasmodium vinckei, petteri or chabaudi; assay: Antimalarial activity in vivo, infected mice, 4 days; design: species or system petteri or chabaudi (male Swiss mice); settings: ip, I.P., twice daily for 4 consecutive days
Experimental: This activity is measured according to the test described by PETERS W. (Chemotherapy and Drug resistance in Malaria, 1970). A compound according to the invention is administered for 4 consecutive days to mice infected beforehand with malaria using Plasmodium vinckei, petteri or chabaudi.
The said compound is dissolved in 0.9% aqueous NaCl solution or, where appropriate, in 10% aqueous gum arabic solution. The preparations are thus administered intraperitoneally or subcutaneously to male Swiss mice of average weight 30 to 40 g which have been infected beforehand intravenously with Plasmodium petterei or P. chabaudi (10^6 infected cells). The compound is administered twice daily for 4 consecutive days, the first injection being performed 2 hours after infestation, and the second 10 hours after. The parasitaemia is determined by means of a smear on the day following the end of the treatment.
The results are collated in Table II, in the form of an ED50 (dose of compound administered in vivo capable of a 50% inhibition of the growth of the parasites).

[2] = Semi-chronic toxicity in vivo; settings: mouse, mice
[3] = cited from earlier work
[4] = cited from earlier work; remark: listed apart in the source
Babesia [5] = settings: cited from earlier work
Babesia [6] = settings: cited from earlier work; remark: listed apart in the source
[7] = 33 nM, read-out: Plasmodium IC50 in vitro resp. at 33 nM
[8] = 100 nM, read-out: Plasmodium IC50 in vitro resp. 100 nM
[9] = ip, I.P., 2 injections daily for four days, read-out: Toxicity LD50 I.P.
[10] = po, P.O., semi-chronic, four days, read-out: Toxicity LD50 P.O.

IC50 upper bound (active at tested concentration) (Plasmodium falciparum; [7]) [nM] | IC50 upper bound (active at tested concentration) (Plasmodium falciparum; [8]) [nM] | SMILES | also measured
 |  | C[C@@H]1CC[C@H]2[C@@H](C)C(=O)O[C@@H]3O[C@@]4(C)CC[C@@H]1[C@]32OO4 [artemisinine] | water-solubility [3]: low water-solubility
< 33 | < 100 | N=c1c(Cl)cc(C(F)(F)F)cn1CCCCCCCCCCCCn1cc(C(F)(F)F)cc(Cl)c1=N [Example 11, 1,1'-(1,12-dodecanediyl)bis(3-chloro-5-trifluoromethyl-2(1H)-pyridinimine) dihydrobromide] | 
< 33 | < 100 | Cc1cc(C)n(CCCCCCCCCCCCn2c(C)cc(C)cc2=N)c(=N)c1 [Example 21, 1,1'-(1,12-dodecanediyl)bis(4,6-dimethyl-2(1H)-pyridinimine)] | 
< 33 | < 100 | Cc1cccc(=N)n1CCCCCCCCCCCCn1c(C)cccc1=N [Example 4, 1,1'-(1,12-dodecanediyl)bis(6-methyl-2(1H)-pyridinimine) dihydrobromide] | 
> 33 | < 100 | Cc1ccc(=N)n(CCCCCCCCn2cc(C)ccc2=N)c1 [Example 12, 1,1'-(1,8-octanediyl)bis(5-methyl-2(1H)-pyridinimine) dihydrobromide] | 
< 33 | < 100 | Cc1ccn(CCCCCCCCCCCCCCCCn2ccc(C)cc2=N)c(=N)c1 [Example 15, 1,1'-(1,16-hexadecanediyl)bis(4-methyl-2(1H)-pyridiniminedihydrobromide] | 
 |  | C[C@H]1[C@@H](O)O[C@@H]2O[C@@]3(C)CC[C@H]4[C@H](C)CC[C@@H]1[C@@]24OO3 [dihydroartemisinine] | water-solubility [3]: low water-solubility; half-life [4]: short half-life
 |  | Nc1ncnc2c1ccn2[C@@H]1O[C@H](CO)[C@@H](O)[C@H]1O [tubercidin] | activity in vitro against Babesia (Babesia [5]): active in vitro; results in vivo against Babesia (Babesia [6]): without, however, giving good results in vivo
< 33 | < 100 | Cc1ccc(=N)n(CCCCCCCCCCCCn2c(C)c(C)ccc2=N)c1C [Example 22, 1,1'-(1,12-dodecanediyl)bis(5,6-dimethyl-2(1H)-pyridinimine)] | 
 |  | CO[C@H]1O[C@@H]2O[C@@]3(C)CC[C@H]4[C@H](C)CC[C@@H]([C@H]1C)[C@@]24OO3 [artemether] | water-solubility [3]: low water-solubility; half-life [4]: short half-life
< 33 | < 100 | Cc1ccc(-c2ccn(CCCCCCCCCCCCn3ccc(-c4ccc(C)cc4)cc3=N)c(=N)c2)cc1 [Example 7, 1,1'-(1,12-dodecanediyl)bis(4-(4-methyl-phenyl)-2(1H)-pyridinimine) dihydrobromide] | 
> 33 | < 100 | CCc1ccn(CCCCCCCCCCCCCCCCn2ccc(CC)cc2=N)c(=N)c1 [Example 16, 1,1'-(1,16-hexadecanediyl)bis(4-ethyl-2(1H)-pyridinimine) dihydrobromide] | 
< 33 | < 100 | Cc1cc(=N)n(CCCCCCCCCCCCn2cc(C)c(C)cc2=N)cc1C [Example 20, 1,1'-(1,12-dodecanediyl)bis(4,5-dimethyl-2(1H)-pyridinimine)] | 
< 33 | < 100 | CCCCc1cccn(CCCCCCCCCCCCn2cccc(CCCC)c2=N)c1=N [Example 8, 1,1'-(1,12-dodecanediyl)bis(3-n-butyl-2(1H)-pyridinimine) dihydrobromide] | 
 | > 100 | CCc1ccn(CCCCCCCCCCCCn2ccc(CC)cc2=N)c(=N)c1 [Example 24, 1,1'-(1,12-dodecanediyl)bis(4-ethyl-2(1H)-pyridinimine)] | 
> 33 | < 100 | Cc1ccn(CCCCCCn2ccc(C)cc2=N)c(=N)c1 [Example 14, 1,1'-(1,6-hexanediyl)bis(4-methyl-2(1H)-pyridinimine) dihydrobromide] | 
< 33 | < 100 | N=c1c(OCc2ccccc2)cccn1CCCCCCCCCCCCn1cccc(OCc2ccccc2)c1=N [Example 6, 1,1'-(1,12-dodecanediyl)bis(3-phenylmethoxy-2(1H)-pyridinimine) dihydrobromide] | 
 |  | CCO[C@H]1O[C@@H]2O[C@@]3(C)CC[C@H]4[C@H](C)CC[C@@H]([C@H]1C)[C@@]24OO3 [artether] | water-solubility [3]: low water-solubility; half-life [4]: short half-life
< 33 | < 100 | CCc1cccc(=N)n1CCCCCCCCCCCCn1c(CC)cccc1=N [Example 26, 1,1'-(1,12-dodecanediyl)bis(6-ethyl-2(1H)-pyridinimine)] | 
< 33 | < 100 | Cc1ccc(C)n(CCCCCCCCCCCCn2c(C)ccc(C)c2=N)c1=N [Example 19, 1,1'-(1,12-dodecanediyl)bis(3,6-dimethyl-2(1H)-pyridinimine)] | 
< 33 | < 100 | Cc1cc(C)c(=N)n(CCCCCCCCCCCCn2cc(C)cc(C)c2=N)c1 [Example 18, 1,1'-(1,12-dodecanediyl)bis(3,5-dimethyl-2(1H)-pyridinimine)] | 
< 33 | < 100 | Cc1ccn(CCCCCCCCn2ccc(C)cc2=N)c(=N)c1 [Example 13] | 
< 33 | < 100 | N=c1cc(Br)ccn1CCCCCCCCCCCCn1ccc(Br)cc1=N [Example 10, 1,1'-(1,12-dodecanediyl)bis(4-bromo-2(1H)-pyridinimine) dihydrobromide] | 
 |  | C[C@H]1[C@H](OC(=O)CCC(=O)O)O[C@@H]2O[C@@]3(C)CC[C@H]4[C@H](C)CC[C@@H]1[C@@]24OO3 [artesunate] | water-solubility [3]: low water-solubility; half-life [4]: short half-life
< 33 | < 100 | Cc1ccn(CCCCCCCCCCCCn2ccc(C)c(C)c2=N)c(=N)c1C [Example 17, 1,1'-(1,12-dodecanediyl)bis(3,4-dimethyl-2(1H)-pyridinimine)] | 
< 33 | < 100 | N=c1ccc(-c2ccccc2)cn1CCCCCCCCCCCCn1cc(-c2ccccc2)ccc1=N [Example 5, 1,1'-(1,12-dodecanediyl)bis(5-phenyl-2(1H)-pyridinimine) dihydrobromide] | 

SMILES | IC50 upper bound (active at tested concentration) (Plasmodium falciparum; [7]) [nM] | IC50 upper bound (active at tested concentration) (Plasmodium falciparum; [8]) [nM] | also measured
Cc1cccn(CCCCCCCCCCCCn2cccc(C)c2=N)c1=N [Example 2, 1,1'-(1,12-dodecanediyl)bis(3-methyl-2(1H)-pyridinimine) dihydrobromide] | < 33 | < 100 | IC50 (Plasmodium falciparum): 1.8 nM; ED50 [1]: 3 mg/kg; LD50 [2, 9]: 20 mg/kg; LD50 [2, 10]: > 500 mg/kg
CCc1cccn(CCCCCCCCCCCCn2cccc(CC)c2=N)c1=N [Example 23, 1,1'-(1,12-dodecanediyl)bis(3-ethyl-2(1H)-pyridinimine)] | > 33 | < 100 | IC50 (Plasmodium falciparum): 7.2 nM; ED50 [1]: > 5 mg/kg; LD50 [2, 9]: 23 mg/kg; LD50 [2, 10]: > 400 mg/kg
CCc1ccc(=N)n(CCCCCCCCCCCCn2cc(CC)ccc2=N)c1 [Example 25, 1,1'-(1,12-dodecanediyl)bis(5-ethyl-2(1H)-pyridinimine)] | < 33 | < 100 | IC50 (Plasmodium falciparum): 3.8 nM; ED50 [1]: > 5 mg/kg; LD50 [2, 9]: 7.5 mg/kg; LD50 [2, 10]: > 200 mg/kg
Cc1ccc(=N)n(CCCCCCCCCCCCn2cc(C)ccc2=N)c1 [Example 3, 1,1'-(1,12-dodecanediyl)bis(5-methyl-2(1H)-pyridinimine) dihydrobromide] | < 33 | < 100 | IC50 (Plasmodium falciparum): 0.5 nM; ED50 [1]: 3 mg/kg; LD50 [2, 9]: 6.5 mg/kg; LD50 [2, 10]: > 300 mg/kg
N=c1ccc(Cl)cn1CCCCCCCCCCCCn1cc(Cl)ccc1=N [Example 9, 1,1'-(1,12-dodecanediyl)bis(5-chloro-2(1H)-pyridinimine) dihydrobromide] | < 33 | < 100 | IC50 (Plasmodium falciparum): 1.4 nM; ED50 [1]: 4 mg/kg; LD50 [2, 9]: 10 mg/kg; LD50 [2, 10]: > 200 mg/kg

From patent publication US5834491A, “Bis(2-aminopyridine)s, preparation method therefor and use thereof for controlling parasitic infections” (priority 1994, dated 1998)
